{
  "source": "patent US6509343B1",
  "about": "(priority 1996, dated 2003)",
  "assay_type_in_all_cases": "in vivo",
  "key": {"Pyrenophora teres": {"test_system": "Pyrenophora teres", "assay": "Pyrenophora teres test (barley)/curative", "conditions": "6.25 g/ha, curative, 7 days after inoculation", "method": "Solvent: 25 parts by weight of N,N-dimethylacetamide\nEmulsifier: 0.6 part by weight of alkylaryl polyglycol ether\nTo produce a suitable preparation of active compound, 1 part by weight of active compound or active compound combination is mixed with the stated amounts of solvent and emulsifier, and the concentrate is diluted with water to the desired concentration.\nTo test for curative activity, young plants are sprayed with a conidia suspension of Pyrenophora teres. The plants remain in an incubation cabin at 20° C. and 100% relative atmospheric humidity for 48 hours. The plants are subsequently sprayed with the preparation of active compound at the stated application rate.\nThe plants are placed in a greenhouse at a temperature of about 20° C. and a relative atmospheric humidity of about 80%.\nEvaluation is carried out 7 days after the inoculation. 0% means an efficacy which corresponds to that of the control, whereas an efficacy of 100% means that no infection is observed."}, "Fusarium nivale": {"test_system": "Fusarium nivale", "assay": "Fusarium nivale test (triticale)/seed treatment", "conditions": "about 3 weeks after sowing", "method": "The active compounds are applied as a dry seed dressing. This is prepared by extending the respective active compound with ground mineral to give a finely pulverulent mixture which ensures uniform distribution on the seed surface.\nTo dress the seed, the infected seed together with the seed dressing is shaken for 3 minutes in a sealed glass flask.\n2×100 corns of triticale are sown at a depth of 1 cm in standard soil and cultivated in a greenhouse at a temperature of about 10° C. and a relative atmospheric humidity of about 95% in seed trays which receive a light regimen of 15 hours per day.\nAbout 3 weeks after sowing, the plants are evaluated for symptoms of snow mould. 0% means an efficacy which corresponds to that of the untreated control, while an efficacy of 100% means that no disease is observed."}, "Phytophthora infestans": {"test_system": "Phytophthora infestans", "assay": "whole plant or invertebrate"}, "[1]": {"conditions": "Phytophthora infestans, in Solanum lycopersicum, 72 h, read-out: % efficacy"}},
  "data": [
    {"smiles": "CON=C(C1=NOCCO1)c1ccccc1Oc1ncnc(Oc2ccccc2Cl)c1F", "note": "[(I)]", "values": [
      {"measurement": "Efficacy in %", "setting": "Pyrenophora teres", "value": 0, "unit": "%"}
    ]},
    {"smiles": "N#Cc1c[nH]cc1-c1cccc(Cl)c1Cl", "note": "[(Fenpiclonil) z, fenpiclonil]", "values": [
      {"measurement": "Efficacy in %", "setting": "Fusarium nivale; 75 mg/kg of seed", "value": 67, "unit": "%"}
    ]},
    {"smiles": "CCC1(C(=O)NC(C)c2ccc(Cl)cc2)C(C)C1(Cl)Cl", "note": "[(ω), N-(R)-[1-(4-chloro-phenyl)-ethyl]-2,2-dichloro-1ethyl-3t-methyl-1r-cyclopropane-carboxamide]", "values": [
      {"measurement": "Emax at 5 g/ha", "setting": "Phytophthora infestans; [1]", "value": 3, "unit": "%"}
    ]},
    {"smiles": "O=C(Nc1ccccc1)N(Cc1ccc(Cl)cc1)C1CCCC1", "note": "[(Pencycuron) P, pencycuron]", "values": [
      {"measurement": "Efficacy in %", "setting": "Fusarium nivale; 25 mg/kg of seed", "value": 29, "unit": "%"}
    ]},
    {"smiles": "COc1ccc(/C(=C\\C(=O)N2CCOCC2)c2ccc(Cl)cc2)cc1OC", "note": "[Dimetomorph (L), dimetomorph]", "values": [
      {"measurement": "Emax at 1 g/ha", "setting": "Phytophthora infestans; [1]", "value": 0, "unit": "%"}
    ]},
    {"smiles": "CC(C)(C)C(O)C(Oc1ccc(Cl)cc1)n1cncn1", "note": "(stereo not shown) [(F), triadimenol]", "values": [
      {"measurement": "Efficacy in %", "setting": "Pyrenophora teres", "value": 0, "unit": "%"}
    ]},
    {"smiles": "CCNC(=O)NC(=O)/C(C#N)=N/OC", "note": "[Cymoxanil (M), cymoxanil]", "values": [
      {"measurement": "% efficacy", "setting": "Phytophthora infestans; in vivo", "value": 12, "unit": "%"}
    ]}
  ]
}
